Assay results taken from patent US8299048B2, “Hexahydrocyclopentyl[f]indazole sulfonamides and derivatives thereof as selective glucocorticoid receptor modulators” (Merck Sharp & Dohme Corp., priority 2008, dated 2012).

target: T1, glucocorticoid receptor (Homo sapiens, UniProt P04150); experiment: Ligand binding assay (GR BIND)
T1 construct: endogenous in cells
T1 sequence (P04150 1-777): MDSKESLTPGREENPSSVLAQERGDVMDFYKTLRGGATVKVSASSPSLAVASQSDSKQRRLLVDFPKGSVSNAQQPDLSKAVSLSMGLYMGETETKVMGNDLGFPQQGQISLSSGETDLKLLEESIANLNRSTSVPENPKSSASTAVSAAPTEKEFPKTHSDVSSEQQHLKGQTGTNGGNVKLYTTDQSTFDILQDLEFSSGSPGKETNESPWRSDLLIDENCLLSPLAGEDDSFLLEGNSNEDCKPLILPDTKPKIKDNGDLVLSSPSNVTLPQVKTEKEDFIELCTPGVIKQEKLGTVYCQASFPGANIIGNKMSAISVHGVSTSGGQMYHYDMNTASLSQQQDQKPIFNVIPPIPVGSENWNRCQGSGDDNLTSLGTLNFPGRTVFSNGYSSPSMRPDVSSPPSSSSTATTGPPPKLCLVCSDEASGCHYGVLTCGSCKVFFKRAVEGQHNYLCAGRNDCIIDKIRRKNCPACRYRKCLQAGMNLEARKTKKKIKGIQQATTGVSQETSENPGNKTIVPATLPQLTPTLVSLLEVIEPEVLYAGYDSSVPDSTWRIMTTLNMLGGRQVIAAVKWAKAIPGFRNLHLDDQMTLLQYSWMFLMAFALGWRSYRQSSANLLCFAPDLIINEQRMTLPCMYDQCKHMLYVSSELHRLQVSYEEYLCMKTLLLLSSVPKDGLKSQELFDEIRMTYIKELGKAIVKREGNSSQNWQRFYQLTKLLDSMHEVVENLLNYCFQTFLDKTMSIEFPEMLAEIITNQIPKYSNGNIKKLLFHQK
Procedure: • Materials: • Binding Buffer: TEGM (10 mM Tris-HCl, 1 mM EDTA, 10% glycerol, 1 mM beta-mecaptoethanol, 10 mM Sodium Molybdate, pH 7.2) • 50% HAP Slurry: Calbiochem Hydroxylapatite, Fast Flow, in 10 mM Tris, pH 8.0 and 1 mM EDTA. • Wash Buffer: 40 mM Tris, pH7.5, 100 mM KCl, 1 mM EDTA and 1 mM EGTA.
Phenol red-free Trypsin-EDTA is diluted in the same PBS1:10. The cell layers are rinsed with 1× Trypsin, extra Trypsin is poured out, and the cell layers are incubated at 37° C. for ˜2 min. The flask is tapped and checked for signs of cell detachment. Once the cells begin to slide off the flask, the complete media is added. The cells are counted at this point, then diluted to the appropriate concentration and split into flasks or dishes for further culturing (Usually 1:3 to 1:6 dilution).
When the cells are 70 to 85% confluent, they are detached as described above, and collected by centrifuging at 1000 g for 10 minutes at 4° C. The cell pellet is washed twice with TEGM (10 mM Tris-HCl, 1 mM EDTA, 10% glycerol, 1 mM beta-mercaptoethanol, 10 mM Sodium Molybdate, pH 7.2). After the final wash, the cells are resuspended in TEGM at a concentration of 10^7 cells/mL. The cell suspension is snap frozen in liquid nitrogen or ethanol/dry ice bath and transferred to −80° C. freezer on dry ice. Before setting up the binding assay, the frozen samples are left on ice-water to just thaw (˜1 hr). Then the samples are centrifuged at 12,500 g to 20,000 g for 30 min at 4° C. The supernatant is used to set-up assay right away. If using 50 μL of supernatant, the test compound can be prepared in 50 μL of the TEGM buffer.
1×TEGM buffer is prepared, and the isotope-containing assay mixture is prepared in the following order: EtOH (2% final concentration in reaction), 3H-DEX (Amersham Biosciences) and 1×TEGM. [e.g. For 100 samples, 200 μL (100×2) of EtOH+4.25 μL of 1:10 ^3H—Dex stock+2300 μL (100×23) 1×TEGM]. The compound is serially diluted, e.g., if starting final conc. is 1 μM, and the compound is in 25 μL of solution, for duplicate samples, 75 μL of 4×1 μM solution is made and 3 μL of 100 μM is added to 72 μL of buffer, and 1:5 serial dilution.
25 μL of ^3H-DEX (6 nM) trace and 25 μL compound solution are first mixed together, followed by addition of 50 μL receptor solution. The reaction is gently mixed, spun briefly at about 200 rpm and incubated at 4° C. overnight. 100 μL of 50% HAP slurry is prepared and added to the incubated reaction which is then vortexed and incubated on ice for 5 to 10 minutes. The reaction mixture is vortexed twice more to resuspend HAP while incubating reaction. The samples in 96-well format are then washed in wash buffer using The FilterMate™ Universal Harvester plate washer (Packard). The washing process transfers HAP pellet containing ligand-bound expressed receptor to Unifilter-96 GF/B filter plate (Packard). The HAP pellet on the filter plate is incubated with 50 μL of MICROSCINT (Packard) scintillint for 30 minutes before being counted on the TopCount microscintillation counter (Packard). […] are calculated using DEX as a reference.

SMILES | Ki
C[C@@H](CN(C[C@H]1CCC2=Cc3c(cnn3-c3ccc(F)cc3)C[C@@]21C)S(=O)(=O)CC(F)(F)F)OS(=O)(=O)CC(F)(F)F [Example 114, (1S)-2-{{[(4αR,5S)-1-(4-fluorophenyl)-4α-methyl-1,4,4α,5,6,7-hexahydrocyclopenta[f]indazol-5-yl]methyl}[(2,2,2-trifluoroethyl)sulfonyl]amino}-1-methylethyl 2,2,2-trifluoroethanesulfonate] | 0.8 nM
COCCN(C[C@H]1CCC2=Cc3c(cnn3-c3ccc(F)cc3)C[C@@]21C)S(=O)(=O)CC(F)(F)F [Example 97, 2,2,2-trifluoro-N-{[(4αR,5S)-1-(4-fluorophenyl)-4α-methyl-1,4,4α,5,6,7-hexahydrocyclopenta[f]indazol-5-yl]methyl}-N-(2-methoxyethyl)ethanesulfonamide] | 0.3 nM
CCCCS(=O)(=O)N(CCc1ccccc1F)C[C@H]1CCC2=Cc3c(cnn3-c3ccc(F)cc3)C[C@@]21C [Example 102, N-[2-(2-fluorophenyl)ethyl]-N-{[(4αR,5S)-1-(4-fluorophenyl)-4α-methyl-1,4,4α,5,6,7-hexahydrocyclopenta[f]indazol-5-yl]methyl}butane-1-sulfonamide] | 2.6 nM
C[C@]12Cc3cnn(-c4ccc(F)cc4)c3C=C1CC[C@@H]2CN(CC1CC1)S(=O)(=O)c1ccc(-c2ccccc2)cc1 [Example 10, N-(cyclopropylmethyl)-N-{[(4αR,5S)-1-(4-fluorophenyl)-4α-methyl-1,4,4α,5,6,7-hexahydrocyclopenta[f]indazol-5-yl]methyl}biphenyl-4-sulfonamide] | 0.7 nM
Cn1cc(S(=O)(=O)N(CCc2ccccc2F)C[C@H]2CCC3=Cc4c(cnn4-c4ccc(F)cc4)C[C@@]32C)c(C(F)(F)F)n1 [Example 98, N-[2-(2-fluorophenyl)ethyl]-N-{[(4αR,5S)-1-(4-fluorophenyl)-4α-methyl-1,4,4α,5,6,7-hexahydrocyclopenta[f]indazol-5-yl]methyl}-1-methyl-3-(trifluoromethyl)-1H-pyrazole-4-sulfonamide] | 1.5 nM
CN1CCOc2cc(S(=O)(=O)N(CC3CC3)C[C@H]3CCC4=Cc5c(cnn5-c5ccc(F)cc5)C[C@@]43C)ccc21 [Example 8, N-(cyclopropylmethyl)-N-{[(4αR,5S)-1-(4-fluorophenyl)-4α-methyl-1,4,4α,5,6,7-hexahydrocyclopenta[f]indazol-5-yl]methyl}-4-methyl-3,4-dihydro-2H-1,4-benzoxazine-7-sulfonamide] | 1.9 nM
C[C@]12Cc3cnn(-c4ccc(F)cc4)c3C=C1CC[C@@H]2CN(CCc1ccccc1O)S(=O)(=O)Cc1cccc(C(F)(F)F)c1 [Example 122, N-{[(4αR,5S)-1-(4-fluorophenyl)-4α-methyl-1,4,4α,5,6,7-hexahydrocyclopenta[f]indazol-5-yl]methyl}-N-[2-(2-hydroxyphenyl)ethyl]-1-[3-(trifluoromethyl)phenyl]methanesulfonamide] | 2.9 nM
COc1ccc(CCN(C[C@H]2CCC3=Cc4c(cnn4-c4ccc(F)cc4)C[C@@]32C)S(=O)(=O)CC(F)(F)F)cc1 [Example 127, 2,2,2-trifluoro-N-{[(4αR,5S)-1-(4-fluorophenyl)-4α-methyl-1,4,4α,5,6,7-hexahydrocyclopenta[f]indazol-5-yl]methyl}-N-[2-(4-methoxyphenyl)ethyl]ethanesulfonamide] | 1.1 nM
C[C@]12Cc3cnn(-c4ccc(F)cc4)c3C=C1CC[C@@H]2CN(CCc1ccccc1F)S(=O)(=O)c1ccccc1Cl [Example 100, 2-chloro-N-[2-(2-fluorophenyl)ethyl]-N-{[(4αR,5S)-1-(4-fluorophenyl)-4α-methyl-1,4,4α,5,6,7-hexahydrocyclopenta[f]indazol-5-yl]methyl}benzenesulfonamide] | 2.1 nM

Other lines, results leading:

Ki | SMILES
2.9 nM | CCCS(=O)(=O)N(CC(O)C(F)F)C[C@H]1CCC2=Cc3c(cnn3-c3ccc(F)cc3)C[C@@]21C (stereo partly drawn) [Example 155, N-(3,3-difluoro-2-hydroxypropyl)-N-{[(4αR,5S)-1-(4-fluorophenyl)-4α-methyl-1,4,4α,5,6,7-hexahydrocyclopenta[f]indazol-5-yl]methyl}propane-1-sulfonamide]
1.2 nM | C[C@]12Cc3cnn(-c4ccccc4)c3C=C1CC[C@@H]2CN(CCc1ccccn1)S(=O)(=O)CC(F)(F)F [Example 138, 2,2,2-trifluoro-N-{[(4αR,5S)-4α-methyl-1-phenyl-1,4,4α,5,6,7-hexahydrocyclopenta[f]indazol-5-yl]methyl}-N-(2-pyridin-2-ylethyl)ethanesulfonamide]
1.8 nM | C[C@]12Cc3cnn(-c4ccc(F)cc4)c3C=C1CC[C@@H]2CN(CCc1ccc(O)cc1)S(=O)(=O)CC(F)(F)F [Example 130, 2,2,2-trifluoro-N-{[(4αR,5S)-1-(4-fluorophenyl)-4α-methyl-1,4,4α,5,6,7-hexahydrocyclopenta[f]indazol-5-yl]methyl}-N-[2-(4-hydroxyphenyl)ethyl]ethanesulfonamide]
1.9 nM | C[C@]12Cc3cnn(-c4ccc(F)cc4)c3C=C1CC[C@@H]2CN(CCc1ccncc1)S(=O)(=O)CC(F)(F)F [Example 129, 2,2,2-trifluoro-N-{[(4αR,5S)-1-(4-fluorophenyl)-4α-methyl-1,4,4α,5,6,7-hexahydrocyclopenta[f]indazol-5-yl]methyl}-N-(2-pyridin-4-ylethyl)ethanesulfonamide]
1 nM | C[C@]12Cc3cnn(-c4ccc(F)cc4)c3C=C1CC[C@@H]2CN(CC(OS(=O)(=O)CC(F)(F)F)c1ccccn1)S(=O)(=O)CC(F)(F)F (stereo partly drawn) [Example 145, 2-{{[(4αR,5S)-1-(4-fluorophenyl)-4α-methyl-1,4,4α,5,6,7-hexahydrocyclopenta[f]indazol-5-yl]methyl}[(2,2,2-trifluoroethyl)sulfonyl]amino}-1-pyridin-2-ylethyl 2,2,2-trifluoroethanesulfonate]
1.7 nM | C[C@]12Cc3cnn(-c4ccc(F)cc4)c3C=C1CC[C@@H]2CN(CCc1ccccc1O)S(=O)(=O)Cc1cccnc1 [Example 131, N-{[(4αR,5S)-1-(4-fluorophenyl)-4α-methyl-1,4,4α,5,6,7-hexahydrocyclopenta[f]indazol-5-yl]methyl}-N-[2-(2-hydroxyphenyl)ethyl]-1-pyridin-3-ylmethanesulfonamide]
1.1 nM | C[C@]12Cc3cnn(-c4ccccc4)c3C=C1CC[C@@H]2CN(CCc1ccccc1O)S(=O)(=O)Cc1cccnc1 [Example 141, N-[2-(2-hydroxyphenyl)ethyl]-N-{[(4αR,5S)-4α-methyl-1-phenyl-1,4,4α,5,6,7-hexahydrocyclopenta[f]indazol-5-yl]methyl}-1-pyridin-3-ylmethanesulfonamide]
